Assay results reported in paper PMC10841072 (European journal of medicinal chemistry, 2023).
One block for each compound: values may come before it.

Columns and labels:
[1] = target: human D3 expressed in HEK cells (Homo sapiens, UniProt P35462); experiment: Radioligand binding assay with [125I]IABN, D3R; conditions: for D2R/D3R selectivity, (Ki for D2R)/(Ki for D3R): ratio of Ki values
[2] = target: human D3 receptor over-expressed in CHO-K1 cells (Homo sapiens, UniProt P35462); experiment: PathHunter β-arrestin recruitment assay, competition with dopamine; type: cell-based; conditions: 30 nM (EC80) dopamine, Mean ± SEM, at least three experiments
[3] = target: human D2 (long) expressed in HEK cells (Homo sapiens, UniProt P14416); experiment: Radioligand binding assay with [125I]IABN, D2R
Sequence of human D2 (long) expressed in HEK cells (P14416 whole entry): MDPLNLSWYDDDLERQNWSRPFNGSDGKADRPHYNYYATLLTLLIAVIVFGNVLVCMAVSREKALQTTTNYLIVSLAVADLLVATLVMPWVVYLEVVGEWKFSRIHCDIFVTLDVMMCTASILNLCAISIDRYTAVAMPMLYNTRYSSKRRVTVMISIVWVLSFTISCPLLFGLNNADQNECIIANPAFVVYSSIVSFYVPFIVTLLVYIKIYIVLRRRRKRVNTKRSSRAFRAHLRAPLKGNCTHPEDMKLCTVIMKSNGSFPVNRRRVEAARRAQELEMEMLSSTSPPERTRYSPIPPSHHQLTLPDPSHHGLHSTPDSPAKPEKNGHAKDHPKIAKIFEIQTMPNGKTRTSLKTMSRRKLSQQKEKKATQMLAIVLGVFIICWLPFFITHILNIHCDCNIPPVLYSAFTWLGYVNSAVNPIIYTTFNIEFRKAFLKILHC

Sequence of human D3 receptor over-expressed in CHO-K1 cells (P35462 whole entry): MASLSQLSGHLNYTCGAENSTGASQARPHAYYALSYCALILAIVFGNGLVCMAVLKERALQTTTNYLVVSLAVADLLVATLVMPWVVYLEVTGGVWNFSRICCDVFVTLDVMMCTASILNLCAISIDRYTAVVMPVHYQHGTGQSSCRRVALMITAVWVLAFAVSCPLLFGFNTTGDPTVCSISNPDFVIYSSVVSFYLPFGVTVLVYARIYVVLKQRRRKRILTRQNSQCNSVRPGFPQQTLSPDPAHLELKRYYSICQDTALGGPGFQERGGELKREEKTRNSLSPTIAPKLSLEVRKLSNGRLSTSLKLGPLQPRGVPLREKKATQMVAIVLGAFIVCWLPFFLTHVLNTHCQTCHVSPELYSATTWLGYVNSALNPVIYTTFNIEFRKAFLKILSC
Sequence of human D3 expressed in HEK cells (P35462 whole entry): as above

Compound: C=CCN1C[C@H](OCCN)C[C@H]1CNC(=O)c1cc(CCCF)cc(OC)c1OC [Compound 35a, N-(((2S,4R)-1-allyl-4-(2-aminoethoxy)pyrrolidin-2-yl)methyl)-5-(3-fluoropropyl)-2,3-dimethoxybenzamide]
higher affinity for D3R versus D2R [1]: 11 fold

IC50 in β-arrestin recruitment assay (inhibiting dopamine) [2]: much lower potency
Compound: C=CCN1C[C@H](OC(=O)Nc2ccc(-c3ccsc3)cc2)C[C@H]1CNC(=O)c1cc(CCCF)cc(OC)c1OC [Compound 37l, (3R,5S)-1-allyl-5-((5-(3-fluoropropyl)-2,3-dimethoxybenzamido)methyl)pyrrolidin-3-yl (4-(thiophen-3-yl)phenyl)carbamate]

D2R/D3R selectivity, (Ki for D2R)/(Ki for D3R) [1]: modest
Compound: C=CCN1C[C@@H](OC(=O)Nc2ccc(-c3ccsc3)cc2)C[C@H]1CNC(=O)c1cc(CCCF)cc(OC)c1OC [Compound 41, (3S,5S)-1-allyl-5-((5-(3-fluoropropyl)-2,3-dimethoxybenzamido)methyl)pyrrolidin-3-yl (4-(thiophen-3-yl)phenyl)carbamate]

D2R/D3R selectivity, (Ki for D2R)/(Ki for D3R) [1]: higher affinity for D2R versus D3R
Compound: C=CCN1C[C@H](OC(=O)Nc2ccoc2)C[C@H]1CNC(=O)c1cc(CCCF)cc(OC)c1OC [Compound 37h, (3R,5S)-1-allyl-5-((5-(3-fluoropropyl)-2,3-dimethoxybenzamido)methyl)pyrrolidin-3-yl furan-3-ylcarbamate]

IC50 in β-arrestin recruitment assay (inhibiting dopamine) [2]: much lower potency
Compound: C=CCN1C[C@H](OC(=O)Nc2ccc(-c3ccccn3)cc2)C[C@H]1CNC(=O)c1cc(CCCF)cc(OC)c1OC [Compound 37k, (3R,5S)-1-allyl-5-((5-(3-fluoropropyl)-2,3-dimethoxybenzamido)methyl)pyrrolidin-3-yl (4-(pyridin-2-yl)phenyl)carbamate]

Compound: C=CCN1C[C@@H](OCCCN)C[C@H]1CNC(=O)c1cc(CCCF)cc(OC)c1OC [Compound 40, N-(((2S,4S)-1-allyl-4-(3-aminopropoxy)pyrrolidin-2-yl)methyl)-5-(3-fluoropropyl)-2,3-dimethoxybenzamide]
Ki [3]: 16.9 ± 0.9 nM

IC50 in β-arrestin recruitment assay (inhibiting dopamine) [2]: much lower potency
Compound: CCN1C[C@H](OC(=O)Nc2ccc(-c3ccsc3)cc2)C[C@H]1CNC(=O)c1cc(CCCF)cc(OC)c1OC [Compound 47, (3R,5S)-1-ethyl-5-((5-(3-fluoropropyl)-2,3-dimethoxybenzamido)methyl)pyrrolidin-3-yl (4-(thiophen-3-yl)phenyl)carbamate]
